Test results: US20210277003A1, “OGA INHIBITOR COMPOUNDS” (Janssen Pharmaceutica NV, priority 2018, published 2021)

Key:
[1] = test system: OGA in HEK293 cells inducible for P301L mutant human Tau (isoform 2N4R); test: OGA cellular assay: immunocytochemical detection of O-GlcNAcylated proteins (CTD110.6 antibody); type: cell-based; conditions: Homo sapiens, HEK293, 6 h, 6 hours incubation; for Emax: maximum = Thiamet G 200 uM; for EC50: read-out: Cellular hOGA, pEC50 (converted)
Procedure: HEK293 cells inducible for P301L mutant human Tau (isoform 2N4R) were established at Janssen. Thiamet-G was used for both plate validation (high control) and as reference compound (reference EC50 assay validation). OGA inhibition is evaluated through the immunocytochemical (ICC) detection of O-GlcNAcylated proteins by the use of a monoclonal antibody (CTD110.6; Cell Signaling, #9875) detecting 0-GlcNAcylated residues as previously described (Dorfmueller et al. 2010 Chemistry & biology, 17:1250). Inhibition of OGA will result in an increase of O-GlcNAcylated protein levels resulting in an increased signal in the experiment. Cell nuclei are stained with Hoechst to give a cell culture quality control and a rough estimate of immediate compounds toxicity, if any. ICC pictures are imaged with a Perkin Elmer Opera Phenix plate microscope and quantified with the provided software Perkin Elmer Harmony 4.1.
Cells were propagated in DMEM high Glucose (Sigma, #D5796) following standard procedures. 2 days before the cell assay cells are split, counted and seeded in Poly-D-Lysine (PDL) coated 96-wells (Greiner, #655946) plate at a cell density of 12,000 cells per cm^2 (4,000 cells per well) in 100p of Assay Medium (Low Glucose medium is used to reduce basal levels of GlcNAcylation) (Park et al. 2014 The Journal of biological chemistry 289:13519). At the day of compound test medium from assay plates was removed and replenished with 90 µl of fresh Assay Medium. 10p of compounds at a 10 fold final concentration were added to the wells. Plates were centrifuged shortly before incubation in the cell incubator for 6 hours. DMSO concentration was set to 0.2%. Medium is discarded by applying vacuum. For staining of cells medium was removed and cells washed once with 100 μl D-PBS (Sigma, #D8537). From next step onwards unless other stated assay volume was always 50p and incubation was performed without agitation and at room temperature. Cells were fixed in 50 μl of a 4% paraformaldehyde (PFA, Alpha aesar, #043368) PBS solution for 15 minutes at room temperature. […] Before analysis samples were washed 2 times manually for 5 minutes in ICC base buffer.
Imaging is performed using Perkin Elmer Phenix Opera using a water 20× objective and recording 9 fields per well. Intensity readout at 488 nm is used as a measure of O-GlcNAcylation level of total proteins in wells. To assess potential toxicity of compounds nuclei were counted using the Hoechst staining. IC50-values are calculated using parametric non-linear regression model fitting. As a maximum inhibition Thiamet G at a 200 uM concentration is present on each plate. In addition, a concentration response of Thiamet G is calculated on each plate.

[2] = target: T1, recombinant human Meningioma Expressed Antigen 5 (MGEA5), also referred to as O-GlcNAcase (OGA) (Homo sapiens, UniProt O60502); test: OGA biochemical assay: inhibition of hydrolysis of fluorescein mono-ß-D-N-Acetyl-Glucosamine (FM-GlcNAc), fluorescence readout; conditions: FM-GlcNAc substrate; for Emax: read-out: Enzymatic Emax (%); for IC50: read-out: Enzymatic hOGA, pIC50 (converted)
T1 construct: Full length OGA enzyme was purchased at OnGene (cat #TP322411); purchased OnGene (so in the source)
T1 sequence (O60502 1-916): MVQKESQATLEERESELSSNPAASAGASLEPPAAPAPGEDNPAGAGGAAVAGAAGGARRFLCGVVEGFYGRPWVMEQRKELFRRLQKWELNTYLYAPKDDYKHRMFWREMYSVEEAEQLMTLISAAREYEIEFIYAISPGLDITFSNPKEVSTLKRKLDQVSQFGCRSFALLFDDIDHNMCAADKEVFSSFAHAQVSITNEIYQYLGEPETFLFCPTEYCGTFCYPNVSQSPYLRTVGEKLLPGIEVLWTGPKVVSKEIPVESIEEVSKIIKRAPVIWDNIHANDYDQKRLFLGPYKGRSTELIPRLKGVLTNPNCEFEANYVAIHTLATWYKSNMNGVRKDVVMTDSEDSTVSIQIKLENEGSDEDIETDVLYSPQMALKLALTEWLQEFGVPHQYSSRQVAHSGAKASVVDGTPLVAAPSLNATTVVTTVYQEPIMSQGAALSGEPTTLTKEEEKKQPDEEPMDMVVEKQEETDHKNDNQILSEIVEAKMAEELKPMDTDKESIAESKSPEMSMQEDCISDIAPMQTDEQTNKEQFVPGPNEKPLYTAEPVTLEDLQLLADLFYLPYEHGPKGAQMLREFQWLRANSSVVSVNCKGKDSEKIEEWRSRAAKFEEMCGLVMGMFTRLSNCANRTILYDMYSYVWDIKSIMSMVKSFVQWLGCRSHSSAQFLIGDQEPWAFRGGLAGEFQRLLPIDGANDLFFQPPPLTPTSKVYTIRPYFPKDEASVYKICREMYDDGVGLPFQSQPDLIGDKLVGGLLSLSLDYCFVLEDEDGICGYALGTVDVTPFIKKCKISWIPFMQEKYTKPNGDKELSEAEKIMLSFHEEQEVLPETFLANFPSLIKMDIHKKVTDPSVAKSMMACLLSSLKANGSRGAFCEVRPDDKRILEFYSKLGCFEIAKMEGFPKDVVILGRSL
In short: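 Full-length recombinant human OGA (2 nM) was pre-incubated with compound for 60 min, then reacted with 100 uM FM-GlcNAc for 6 h at room temperature in 200 mM citrate/phosphate pH 7.2 with 0.005% Tween-20. Reactions were stopped with pH 11.0 carbonate and fluorescein read at 485/538 nm. IC50 and Hill coefficient came from curve fitting.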

Row | Emax [2] [%] | IC50 [2] [nM] | Enzymatic hOGA; pIC50 [2] | Compound | Emax [1] [%] | EC50 [1] [nM]
1 | 100 | 115 |  | Cc1ccnc(C)c1Nc1nccc2c1ccn2CCC1COC1 [Compound 38] | 63 | 562
2 | 99.7 |  | 7.94 | Cc1ccnc(OC(F)F)c1Nc1nccc2c1ccn2CC(C)(F)F [Compound 132] | 82.2 | 110
3 | 102 | 10.7 |  | Cc1cncc(C)c1Nc1nccc2c1ccn2CCC(C)C [Compound 48] | 86 | 30.9
4 | 101 | 10.2 |  | CC(C)=C(F)Cn1ccc2c(Nc3c(C)cc(-c4cnn(C)c4)cc3C)nccc21 [Compound 208] | 90.1 | 72.4
5 | 101 | 79.4 |  | Cn1ccc(-n2ccc3c(Nc4c(Cl)cc(F)cc4Cl)nccc32)n1 [Compound 184] | 46.5 | 912
6 | 102 |  | 8.36 | Cc1cc(C(F)(F)F)nc(C)c1Nc1nccc2c1ccn2CC(C)(F)F [Compound 131] | 78.7 | 15.5
7 | 101 | 5.37 |  | CCCCn1ccc2c(Nc3c(C)cc(NC(C)=O)cc3C)nccc21 [Compound 62] | 95 | 9.33
8 | 104 | 0.891 |  | CCCCn1ccc2c(Nc3c(C)cccc3C(C)C)nccc21 [Compound 67] | 99 | 16.2
9 | 104 | 7.76 |  | Cc1cncc(C(F)(F)F)c1Nc1nccc2c1ccn2CCC1CC1 [Compound 194] | 67.9 | 79.4
10 | 102 |  | 7.89 | Cc1cc(C(F)(F)F)cc(C)c1Nc1nccc2c1ccn2CC1CC(F)(F)C1 [Compound 118] | 71.7 | 74.1
11 | 105 |  | 8 | Cc1ccnc(OC(F)F)c1Nc1nccc2c1ccn2CC1CCO1 (centres unmarked) [Compound 119] | 80.3 | 102
12 | 104 | 4.9 |  | Cc1ccnc(C(F)(F)F)c1Nc1nccc2c1ccn2CCC1CC1 [Compound 197] | 86.3 | 56.2
13 | 103 |  | 7.08 | Cc1ccnc(C)c1Nc1nccc2c1ccn2CC1CCOC1 (centres unmarked) [Compound 140] | 63.9 | 603
14 | 100 | 148 |  | Clc1cccc(Cl)c1Nc1nccc2c1ccn2CC1COC1 [Compound 35] | 20 | > 1000
15 | 104 | 2.04 |  | CCCCn1ccc2c(Nc3c(C)cc(-c4cnn(C)c4)cc3C)nccc21 [Compound 54] | 82 | 20.9
16 | 103 | 3.72 |  | CCCCn1ccc2c(Nc3c(C)cc(C(=O)N(C)C)cc3C)nccc21 [Compound 61] | 92 | 5.89
17 | 101 |  | 8.58 | Cc1cc(Cn2ccc3c(Nc4c(Cl)cc(F)cc4Cl)nccc32)no1 [Compound 158] | 71 | 63.1
18 | 103 |  | 7.76 | Cc1ccnc(C(C)C)c1Nc1nccc2c1ccn2CC1CCOC1 (centres unmarked) [Compound 141] | 74.7 | 107

Row | Emax [2] [%] | IC50 [2] [nM] | Enzymatic hOGA; pIC50 [2] | Compound | Emax [1] [%] | EC50 [1] [nM]
19 | 102 | 81.3 |  | COCCn1ccc2c(Nc3c(Cl)cccc3Cl)nccc21 [Compound 40] | 30 | > 1000
20 | 106 |  | 8.9 | CCC(F)(F)Cn1ccc2c(Nc3c(Cl)cccc3Cl)nccc21 [Compound 113] | 93 | 7.94
21 | 101 | 24.5 |  | Cc1cncc(C)c1Nc1nccc2c1ccn2CC1CC1 [Compound 41] | 71 | 95.5
22 | 103 | 11.7 |  | Cc1cncc(C)c1Nc1nccc2c1ccn2CCC1CC1 [Compound 49] | 63 | 79.4
23 | 102 | 53.7 |  | CCCC(C)n1ccc2c(Nc3c(Cl)cccc3Cl)nccc21 (centres unmarked) [Compound 39] | 56 | 692
24 | 102 |  | 7.31 | Cc1ccnc(C)c1Nc1nccc2c1ccn2CCC(C)(F)F [Compound 90] | 62 | 363
25 | 104 | 5.37 |  | Cc1cncc(Cl)c1Nc1nccc2c1ccn2CCC1CC1 [Compound 65] | 69 | 120
26 | 101 | 51.3 |  | CCCCn1ccc2c(Nc3c(C)ccc4c3nc(C)n4C)nccc21 [Compound 206] | 63.7 | 661
27 | 102 |  | 8.16 | CCCCn1ccc2c(Nc3c(C)ccnc3C)nccc21 [Compound 6] | 89 | 50.1
28 | 99 |  | 7.31 | CCCCn1ccc2c(Nc3c(C)ccc4[nH]nnc34)nccc21 [Compound 12] | 64 | 562
29 | 103 |  | 8.75 | Cc1c(F)cnc(C(C)C)c1Nc1nccc2c1ccn2CC1CCO1 (centres unmarked) [Compound 127] | 76.7 | 11.5
30 | 98.6 |  | 8.81 | Cc1ccnc(C(C)C)c1Nc1nccc2c1ccn2CC(C)(F)F [Compound 147] | 90.9 | ~4.47
31 | 103 | 3.24 |  | CCC(F)Cn1ccc2c(Nc3c(C)ccnc3C)nccc21 (centres unmarked) [Compound 78] | 96 | 7.94
32 | 102 |  | 8.88 | CCC(F)(F)Cn1ccc2c(Nc3c(C)ccnc3C(C)C)nccc21 [Compound 112] | 92.3 | ~1.82
33 | 102 | 4.27 |  | Cc1cc(F)cc(F)c1Nc1nccc2c1ccn2CC(F)(F)C(C)C [Compound 186] | 85.9 | 24.5
34 | 99.2 |  | 7.53 | CC[C@H](O)Cn1ccc2c(Nc3c(C)cc(C#N)cc3Cl)nccc21 [Compound 123b] | 71.1 | 100
35 | 101 | 11.7 |  | Cc1ccnc(C)c1Nc1nccc2c1ccn2CCC(C)C [Compound 47] | 95 | 47.9
